# Data published in article PMC6892276 (European Journal of Pharmaceutical Sciences, 2019).
# Tests used:
# [1] = CLint in cryopreserved dog hepatocyte suspensions; assay type: in vitro ADME; settings: Beagle
# Method: (§1) Cells were stored in the vapour phase of liquid nitrogen and thawed as per the supplier's instructions (rapid thawing at 37 °C, followed by centrifugation at 50 ×g for 5 min in thawing medium). Hepatocytes were re-suspended in a small volume of incubation medium (WME buffered with HEPES (final concentration 24 mM) adjusted to pH 7.4). Cell density was estimated using a haemocytometer and light microscope and viability determined according to the trypan blue exclusion method; cells were subsequently diluted to the required concentration in incubation medium. […]
# (§2) For the purpose of CLint determination, samples were analysed using an Agilent 1290 Infinity ultra high-performance liquid chromatography (UHPLC) system coupled to an Agilent 6520 Quadrupole Time-of-flight mass spectrometer (Agilent Technologies, Stockport, UK). […]
# (§3) In vitro data (parent compound LC-MS response) was fitted to a non-linear single exponential model using the software GraphPad Prism (v6.07, GraphPad Software, Inc., La Jolla, USA) to determine the elimination rate constant (k). CLint in hepatocytes and liver microsomes was calculated using Eqs. […]
# [2] = CLint in rat liver microsomes; assay type: in vitro ADME; settings: Sprague Dawley, female, 1 mg/ml, NADPH
# Method: (§4) All incubations of subcellular fractions and recombinant enzymes were conducted at 37 °C and 800 rpm using a Hamilton Microlab Star liquid handling workstation (Hamilton Robotics (Bonaduz, Switzerland)).
# (§5) Prior to initiation of the reaction by the addition of NADPH (final concentration 1 mM), an aliquot was removed from each incubation and quenched in ice cold methanol containing internal standard (referred to as T0). NADPH was subsequently added to this solution for matrix matching. The remaining reaction (with addition of NADPH) was allowed to proceed for 60 min. At 0.5, 5, 15, 30 and 60 min aliquots were sampled and quenched as above. Incubations were conducted in singlicate; control incubations (substituting PBS for NADPH) were conducted simultaneously.
# as §2, §3
# [3] = set-up: method as in Bavetsias et al., 2012; settings: mouse and rat; ref Bavetsias et al., 2012; cited from earlier work
# [4] = CLint in minipig liver microsomes; assay type: in vitro ADME; settings: Gottingen, 1 mg/ml, NADPH
# Method: as §4, §5, §2, §3
# [5] = CLint in human liver microsomes; assay type: in vitro ADME; settings: both sexes, mixed sex, 1 mg/ml, NADPH
# Method: as §4, §5, §2, §3
# Unbound CLint (CLint,u) was calculated using Eq. (6).(6) CLint,u=CLint/fu
# MV4-11 xenograft = test system: MV4-11 xenograft; set-up: method as in Bavetsias et al., 2012; settings: MV4-11 xenograft mouse model; ref Bavetsias et al., 2012; cited from earlier work
# CYP2A6 = test system: CYP2A6; set-up: method as in Bavetsias et al., 2012; settings: ref Bavetsias et al., 2012; read-out: CYP2A6 inhibition IC50; cited from earlier work
# [6] = test system: HCT116 (human colon carcinoma); set-up: method as in Bavetsias et al., 2012; settings: ref Bavetsias et al., 2012; cited from earlier work
# [7] = CLint in cryopreserved rat hepatocyte suspensions; assay type: in vitro ADME; settings: Sprague Dawley, pH 7.4, female
# Method: as §1, §2, §3
# [8] = CLint in mouse liver microsomes; assay type: in vitro ADME; settings: ICR/CD-1, liver microsomes, female, 1 mg/ml, NADPH
# Method: as §4, §5, §2, §3
# hERG = test system: hERG; set-up: method as in Bavetsias et al., 2012; settings: ref Bavetsias et al., 2012; read-out: hERG blockade IC50; cited from earlier work
# [9] = test system: MV4-11 (human FLT3-ITD positive AML); set-up: method as in Bavetsias et al., 2012; settings: ref Bavetsias et al., 2012; cited from earlier work
# [10] = CLint in dog liver microsomes; assay type: in vitro ADME; settings: Beagle, 1 mg/ml, NADPH
# Method: as §4, §5, §2, §3
# [11] = CLint in cryopreserved mouse hepatocyte suspensions; assay type: in vitro ADME; settings: ICR/CD-1, cryopreserved hepatocyte suspensions, pH 7.4, female
# Method: as §1, §2, §3
# CYP2C19 = test system: CYP2C19; set-up: method as in Bavetsias et al., 2012; settings: ref Bavetsias et al., 2012; read-out: CYP2C19 inhibition IC50; cited from earlier work
compound,measurement,setting,value
"Cc1nn(C)cc1-c1nc2c(N3CCN(Cc4ccc(Cl)cc4)CC3)c(Cl)cnc2[nH]1 [CCT241736, 6-Chloro-7-(4-(4-chlorobenzyl)piperazin-1-yl)-2-(1,3-dimethyl-1Hpyrazol-4-yl)-3H-imidazo[4,5-b] pyridine]",hepatocyte CLint at 1 μM,"[1]; pH 7.4, female",3.9 µL/min/1e6 cells
same,hepatocyte CLint at 1 μM,"[1]; pH 7.4, male",8.4 µL/min/1e6 cells
same,microsomal CLint at 1 μM,[2],2.7 ± 1.8 µL/min/mg
same,oral bioavailability,[3],79–100%
same,microsomal CLint at 1 μM,[4]; female,5.1 ± 1.1 µL/min/mg
same,microsomal CLint at 1 μM,[4]; male,5.5 ± 0.9 µL/min/mg
same,microsomal CLint at 1 μM,[5],7.8 ± 1 µL/min/mg
same,inhibition of tumour growth,MV4-11 xenograft,strong inhibition of tumour growth
same,IC50,CYP2A6,> 10 µM
same,anti-proliferative activity,[6],anti-proliferative activity
same,hepatocyte CLint at 1 μM,[7],10 µL/min/1e6 cells
same,microsomal CLint at 1 μM,[8],53 ± 4.1 µL/min/mg
same,IC50,hERG,> 25 µM
same,anti-proliferative activity,[9],anti-proliferative activity
same,microsomal CLint at 1 μM,[10]; female,9.5 ± 2.2 µL/min/mg
same,microsomal CLint at 1 μM,[10]; male,7.4 ± 1.4 µL/min/mg
same,hepatocyte CLint at 1 μM,[11],91 µL/min/1e6 cells
same,IC50,CYP2C19,> 10 µM
